# Patent US8536212B2, “Protective agent for retinal nerve or optic nerve” (Sanwa Kagaku Kenkyusho Co., Ltd., priority 2007, dated 2013)
# System: retinal ganglion cells
# Assay: Mouse ophthalmic artery occlusion model: retinal ischemia 2 hours, reperfusion 22 hours, survival of retinal ganglion cells
# Format: in vivo, C57BL/6N normal mice (wild type mice)
# Conditions: for The number of surviving retinal ganglion cells per 1 μm of retina section, average ± SEM: drug given by forced intragastric administration 15 minutes before reperfusion
# Protocol: In the experiment, mouse models with acute ophthalmic artery infarction, namely, mouse models with ophthalmic artery infarction were used. In Experiment 1, eight to ten-week-old C57BL/6N normal mice (wild type mice) were used and the therapeutic efficacy of fidarestat as the compound with aldose reductase (AR) inhibiting activity was evaluated. Here, those mice were divided into two groups: a control group to which only vehicle was administered and a fidarestat administered group to which fidarestat was administered. In Experiment 2, eight to ten-week-old C57BL/6N normal mice (wild type mice:AR^+/+ mice) and AR gene-deficient mice (AR^−/− mice) were used and the role of AR was examined. Here, those mice were divided into two groups: a wild type mouse group (AR^+/+ mice) and an AR gene-deficient mouse group (AR^−/− mice) and a drug administered group was not used.
# Used mice (24 to 28 g of body weight) were subjected to intraluminal suture with nylon monofilament under gas anesthesia. A nylon filament was inserted into the right internal carotid artery at the bifurcation of the middle cerebral artery and the anterior cerebral artery from the common carotid artery. The mice were subjected to retinal ischemia in the right eye. The filament was pulled 2 hours after the ischemia and reperfusion was performed for 22 hours. On the other hand, left eye was evaluated as a normal control eye. In order to confirm ischemia or reperfusion, relative cerebral blood flow (rCBF) in the middle cerebral artery was monitored with a laser Doppler meter during the experiment. Decrease in the rCBF of 75% or more was defined as middle cerebral artery ischemia. The drug was administered 15 minutes before reperfusion starts by forced intragastric administration. At the end of the experiment, the isolated eyes were fixed in 4% paraformaldehyde at 4° C. overnight. The retinal ganglion cell layer was subjected to hematoxylin and eosin stain. Then, the number of surviving retinal ganglion cells was observed and measured. […] All cells of the retina ganglionic layer in each retina section were measured. Further, all measurements were performed by a blind fashion.
smiles,measurement,setting,value
"NC(=O)[C@@H]1C[C@]2(NC(=O)NC2=O)c2cc(F)ccc2O1 [Fidarestat, (2S,4S)-6-fluoro-2′,5′-dioxospiro[chroman-4,4′-imidazolidine]-2-carboxamide]","The number of surviving retinal ganglion cells per 1 μm of retina section, average ± SEM","side of no retinal ischemia (left eye, normal control eye)",23 ± 1 per 1 μm of retina section
same,"The number of surviving retinal ganglion cells per 1 μm of retina section, average ± SEM","side of retinal ischemia (right eye), 2 hours ischemia and 22 hours reperfusion, P<0.001 vs control group",21 ± 1^†††^ per 1 μm of retina section
same,Pathological finding showing retinal ganglion cell death (hematoxylin and eosin stain),"side of retinal ischemia or side of no retinal ischemia, 2 hours ischemia, 22 hours reperfusion (FIG. 1: D3, D4)",not observed
same,Number of surviving retinal ganglion cells on the side of retinal ischemia compared with the control group,"side of retinal ischemia, P<0.001",significantly increased
